In ChEMBL document CHEMBL1201862, “PubChem BioAssay data set” (2004):
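These data come from cells grown in 96-well plates and exposed to compound for 48 hours at five concentrations. At the GI50, growth is halved.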 The source made the active and inactive calls. No stated cut-off is given here; in the data, active = GI50 up to about 1.1 µM and inactive = higher. Where a SMILES comes first, the peptide text is derived from it. The star is where a group is joined. Boc = CC(C)(C)OC(=O)*

Tests used:
Assay in all cases: DTP human tumour cell line panel, 48 h
ACHN = tested on: ACHN
CAKI-1 = tested on: CAKI-1
COLO 205 = tested on: COLO 205
DU-145 = tested on: DU-145
HCT-116 = tested on: HCT-116
Hs-578T = tested on: Hs-578T
K562 = tested on: K562
MDA-MB-231 = tested on: MDA-MB-231
MDA-N = tested on: MDA-N
NCI-H226 = tested on: NCI-H226
NCI-H522 = tested on: NCI-H522
NCI/ADR-RES = tested on: NCI/ADR-RES
OVCAR-4 = tested on: OVCAR-4
RPMI-8226 = tested on: RPMI-8226
RXF 393 = tested on: RXF 393
SN12C = tested on: SN12C
SW-620 = tested on: SW-620
TK-10 = tested on: TK-10
UACC-257 = tested on: UACC-257
T47D = tested on: T47D

Structure (SMILES) | GI50 (ACHN) | GI50 (CAKI-1) | GI50 (COLO 205) | GI50 (DU-145) | GI50 (HCT-116) | GI50 (Hs-578T) | GI50 (K562) | GI50 (MDA-MB-231) | GI50 (MDA-N) | GI50 (NCI-H226) | GI50 (NCI-H522) | GI50 (NCI/ADR-RES) | GI50 (OVCAR-4) | GI50 (RPMI-8226) | GI50 (RXF 393) | GI50 (SN12C) | GI50 (SW-620) | GI50 (TK-10) | GI50 (UACC-257) | GI50 (T47D)
CN(CC(=O)O)c1ncc2c(n1)-c1ccccc1CC2 | > 100 µM (inactive) | > 100 µM (inactive) | > 100 µM (inactive) | > 100 µM (inactive) | > 100 µM (inactive) | > 100 µM (inactive) | > 100 µM (inactive) | > 100 µM (inactive) | > 100 µM (inactive) | > 100 µM (inactive) | > 100 µM (inactive) | > 100 µM (inactive) | > 100 µM (inactive) | > 100 µM (inactive) | > 100 µM (inactive) | > 100 µM (inactive) | > 100 µM (inactive) | > 100 µM (inactive) | > 100 µM (inactive) | –
CSCCCNC(=O)c1csc(-c2csc(CCNC(=O)CNC(=O)CNC(=O)OC(C)(C)C)n2)n1 | > 100 µM (inactive) | > 100 µM (inactive) | > 100 µM (inactive) | > 100 µM (inactive) | > 100 µM (inactive) | > 100 µM (inactive) | > 100 µM (inactive) | > 100 µM (inactive) | > 100 µM (inactive) | > 100 µM (inactive) | > 100 µM (inactive) | > 100 µM (inactive) | > 100 µM (inactive) | – | > 100 µM (inactive) | > 100 µM (inactive) | > 100 µM (inactive) | > 100 µM (inactive) | > 100 µM (inactive) | –
CCCCCCN(CCCCCC)CCC(=O)c1ccc2cc(Br)c3ccccc3c2c1 | 54.1 µM (inactive) | 66.7 µM (inactive) | 22.6 µM (inactive) | 52.2 µM (inactive) | 78.3 µM (inactive) | 33.3 µM (inactive) | 41.1 µM (inactive) | 26.7 µM (inactive) | – | 69.7 µM (inactive) | 25.5 µM (inactive) | 48.5 µM (inactive) | – | 9.31 µM (inactive) | 20.7 µM (inactive) | 34 µM (inactive) | 43.7 µM (inactive) | 26.4 µM (inactive) | 64.7 µM (inactive) | 23.3 µM (inactive)
CC(C)(C)OC(=O)NCC(=O)NCC(=O)NCC(=O)NCC(=O)O (Boc-GGGG-OH) | > 100 µM (inactive) | > 100 µM (inactive) | > 100 µM (inactive) | > 100 µM (inactive) | > 100 µM (inactive) | 66.1 µM (inactive) | > 100 µM (inactive) | > 100 µM (inactive) | – | – | > 100 µM (inactive) | > 100 µM (inactive) | > 100 µM (inactive) | > 100 µM (inactive) | > 100 µM (inactive) | > 100 µM (inactive) | > 100 µM (inactive) | > 100 µM (inactive) | > 100 µM (inactive) | > 100 µM (inactive)
COc1ccc(C2SC(=N)Nc3c2c(C)nn3C(=O)c2ccccc2O)cc1 (stereo not given) | 0.374 µM (active) | 0.667 µM (active) | 8.87 µM (inactive) | – | 0.655 µM (active) | 0.49 µM (active) | 0.45 µM (active) | 0.986 µM (active) | 0.843 µM (active) | 0.904 µM (active) | 3.85 µM (inactive) | 2.12 µM (inactive) | 1.9 µM (inactive) | 1.56 µM (inactive) | 0.532 µM (active) | 2.44 µM (inactive) | 5.47 µM (inactive) | – | 2.81 µM (inactive) | 8.99 µM (inactive)
O=C(NCCc1ccccc1)c1c(O)nc2ccccc2c1O | > 100 µM (inactive) | > 100 µM (inactive) | > 100 µM (inactive) | > 100 µM (inactive) | > 100 µM (inactive) | > 100 µM (inactive) | > 100 µM (inactive) | > 100 µM (inactive) | > 100 µM (inactive) | > 100 µM (inactive) | > 100 µM (inactive) | > 100 µM (inactive) | > 100 µM (inactive) | > 100 µM (inactive) | > 100 µM (inactive) | > 100 µM (inactive) | > 100 µM (inactive) | > 100 µM (inactive) | > 100 µM (inactive) | –
COc1ccc(C2=Nn3c(nnc(Cc4ccc(Cl)cc4)c3=O)SC2)cc1 | 64.7 µM (inactive) | 38.7 µM (inactive) | 50.8 µM (inactive) | 59.3 µM (inactive) | 28.1 µM (inactive) | 63.5 µM (inactive) | 24.3 µM (inactive) | 60.3 µM (inactive) | – | 94 µM (inactive) | 42.4 µM (inactive) | 19.8 µM (inactive) | 42.9 µM (inactive) | 23.1 µM (inactive) | 27.7 µM (inactive) | 61.2 µM (inactive) | 47.4 µM (inactive) | > 100 µM (inactive) | 46.9 µM (inactive) | 64 µM (inactive)
COc1cc(CC2CCc3nc(N)nc(N)c3C2)cc(OC)c1OC (stereo not given) | 0.163 µM (active) | – | 1.6 µM (inactive) | 1.79 µM (inactive) | 0.0457 µM (active) | > 60.5 µM (inactive) | 5.3 µM (inactive) | – | – | > 24.3 µM (inactive) | 0.505 µM (active) | – | > 45.6 µM (inactive) | 5.83 µM (inactive) | 0.0422 µM (active) | 31.1 µM (inactive) | 0.914 µM (active) | > 45.7 µM (inactive) | 24.8 µM (inactive) | 21.6 µM (inactive)
CN1C(=O)c2c(c3c4ccccc4n(C4OC(CO)C(O)C(O)C4O)c3c3[nH]c4ccccc4c23)C1=O (stereo not given) | 2.14 µM (inactive) | 1.9 µM (inactive) | 0.944 µM (active) | 2.74 µM (inactive) | 0.718 µM (active) | 4.45 µM (inactive) | 0.736 µM (active) | 1.51 µM (inactive) | 2.14 µM (inactive) | 1.77 µM (inactive) | 0.321 µM (active) | 12.5 µM (inactive) | 2.37 µM (inactive) | 16.1 µM (inactive) | 3.55 µM (inactive) | 2.82 µM (inactive) | 1.71 µM (inactive) | 3.12 µM (inactive) | 2.49 µM (inactive) | –
COC(=O)C(Cc1ccccc1)NC(=O)C(CCC(=O)OCc1ccccc1)NC(=O)OC(C)(C)C (stereo not given) | 68.9 µM (inactive) | > 100 µM (inactive) | > 100 µM (inactive) | > 100 µM (inactive) | 44.4 µM (inactive) | > 100 µM (inactive) | 26.9 µM (inactive) | 48.1 µM (inactive) | – | 57.4 µM (inactive) | 30.4 µM (inactive) | > 100 µM (inactive) | 64 µM (inactive) | 25 µM (inactive) | > 100 µM (inactive) | 82.6 µM (inactive) | 63.8 µM (inactive) | > 100 µM (inactive) | > 100 µM (inactive) | > 100 µM (inactive)
C/C(=N\NC(=O)CC#N)C(CN1CCCCC1)C(c1ccccc1)c1c(O)c2ccccc2oc1=O (stereo not given) | 35 µM (inactive) | 64.7 µM (inactive) | 18.6 µM (inactive) | > 100 µM (inactive) | 62.2 µM (inactive) | 50.6 µM (inactive) | 55 µM (inactive) | 35.5 µM (inactive) | 49.8 µM (inactive) | 52.1 µM (inactive) | 58.2 µM (inactive) | 48.9 µM (inactive) | 52.1 µM (inactive) | 33.7 µM (inactive) | – | – | 91.4 µM (inactive) | 91.8 µM (inactive) | 37.2 µM (inactive) | –
